The results in this text go back to PubChem BioAssay (NCI).

The structures appear in SMILES notation.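 Interpolation was linear, between the two tested concentrations surrounding the appropriate level; five concentrations were tested over 48 hours in 96-well plates. The concentration for full growth arrest is given as TGI.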

Test systems include MDA-MB-231 breast; UACC-62 melanoma; PC-3 prostate; UACC-257 melanoma; NCI/ADR-RES ovarian; OVCAR-4 ovarian; OVCAR-5 ovarian; UO-31 renal; HL-60(TB) leukemia; HCT-15 colon; CCRF-CEM leukemia; SW-620 colon; MOLT-4 leukemia; HS 578T breast; SK-MEL-28 melanoma; KM12 colon; K-562 leukemia; OVCAR-3 ovarian; SR leukemia; MDA-N.
Common to all, as to test: NCI tumour cell line growth inhibition, 48 h

With `O=[N+]([O-])c1ccc2c(c1)S(=O)(=O)N1Cc3ccccc3CCN21`, the TGI with MDA-MB-231 breast, in the assay with UACC-62 melanoma, in the assay on PC-3 prostate, in the assay with UACC-257 melanoma, in the assay with NCI/ADR-RES ovarian and in the assay on OVCAR-4 ovarian was more than 100 µM throughout. Besides, the TGI in the assay on OVCAR-5 ovarian, with UO-31 renal, in the assay with HL-60(TB) leukemia, in the assay with HCT-15 colon, in the assay on CCRF-CEM leukemia and in the assay on SW-620 colon was more than 100 µM throughout. For the same compound, the TGI with MOLT-4 leukemia, in the assay on HS 578T breast, in the assay on SK-MEL-28 melanoma, with KM12 colon, in the assay on K-562 leukemia and in the assay with OVCAR-3 ovarian was more than 100 µM throughout. Moreover, the TGI with SR leukemia was more than 100 µM.
In the case of `Oc1c2cc(Cl)cc1COCc1cc(Cl)cc(c1O)COCc1cc(Cl)cc(c1O)COC2`, the TGI in the assay with UACC-62 melanoma, in the assay on PC-3 prostate, in the assay on UACC-257 melanoma, in the assay on NCI/ADR-RES ovarian, with OVCAR-4 ovarian and with OVCAR-5 ovarian was more than 100 µM in each case. For the same compound, the TGI in the assay with UO-31 renal was more than 100 µM; with HL-60(TB) leukemia, 8.43 µM; in the assay with HCT-15 colon, more than 100 µM; with CCRF-CEM leukemia it was 59.5 µM; in the assay on SW-620 colon, more than 100 µM; in the assay on SK-MEL-28 melanoma it was more than 100 µM. In addition, the TGI in the assay with KM12 colon, with K-562 leukemia, in the assay with OVCAR-3 ovarian and in the assay with SR leukemia was more than 100 µM in each case.
Consider `COc1ccc2c(c1)C(=O)Cc1ccccc1CC2`, for which the TGI with UACC-62 melanoma, with UACC-257 melanoma, in the assay on OVCAR-4 ovarian, with OVCAR-5 ovarian, with UO-31 renal and in the assay with HL-60(TB) leukemia was more than 100 µM each time. Moreover, the TGI with HCT-15 colon, in the assay with CCRF-CEM leukemia, in the assay with SW-620 colon, in the assay with MOLT-4 leukemia, with SK-MEL-28 melanoma and in the assay with KM12 colon was more than 100 µM throughout. The TGI in the assay on K-562 leukemia, with OVCAR-3 ovarian and in the assay on SR leukemia was more than 100 µM throughout.
Take `O=C1c2ccccc2C(=O)c2c1cc(S(=O)(=O)O)c(O)c2O`: the TGI in the assay on UACC-62 melanoma, in the assay on UACC-257 melanoma, with OVCAR-4 ovarian, in the assay with OVCAR-5 ovarian, in the assay on UO-31 renal and in the assay with HCT-15 colon was more than 100 µM in each case. Besides, the TGI in the assay on CCRF-CEM leukemia, in the assay with SW-620 colon, in the assay with MOLT-4 leukemia, with SK-MEL-28 melanoma, in the assay on KM12 colon and in the assay with K-562 leukemia was more than 100 µM in each case. The TGI in the assay on OVCAR-3 ovarian and in the assay with SR leukemia was more than 100 µM in each case.
Regarding `O=c1c2ccccc2[nH]c2c(Cl)cc(Cl)c(NC3CCCCC3)c12`, the TGI in the assay on MDA-MB-231 breast was determined as 74.3 µM; in the assay on UACC-62 melanoma, 36.6 µM; with PC-3 prostate, 60.1 µM; in the assay with MDA-N, 79.1 µM; with UACC-257 melanoma, 69.5 µM; in the assay with NCI/ADR-RES ovarian, 44 µM. Also, the TGI was more than 100 µM in the assay with OVCAR-4 ovarian; 53.9 µM with OVCAR-5 ovarian; 33.5 µM with UO-31 renal; 43.9 µM in the assay with HL-60(TB) leukemia; more than 100 µM in the assay on HCT-15 colon; 49 µM in the assay with SW-620 colon. Also, the TGI with MOLT-4 leukemia was 86.9 µM; with SK-MEL-28 melanoma, more than 100 µM; in the assay on KM12 colon, 32.4 µM; in the assay on K-562 leukemia it was more than 100 µM; in the assay on OVCAR-3 ovarian, 28 µM; in the assay with SR leukemia it was more than 100 µM.
Consider `[Cl-].[Rh+3].c1cnc2c(c1)ccc1cccnc12.c1cnc2c(c1)ccc1cccnc12.c1cnc2c(c1)ccc1cccnc12`, for which the TGI was more than 100 µM in the assay on UACC-62 melanoma; 92.5 µM in the assay on UACC-257 melanoma; more than 100 µM with OVCAR-4 ovarian; more than 100 µM with OVCAR-5 ovarian; more than 100 µM in the assay on UO-31 renal; more than 100 µM in the assay on HL-60(TB) leukemia. For the same compound, the TGI with HCT-15 colon, in the assay with CCRF-CEM leukemia, in the assay with SW-620 colon, with MOLT-4 leukemia, with KM12 colon and in the assay with K-562 leukemia was more than 100 µM throughout. The TGI in the assay on OVCAR-3 ovarian and in the assay on SR leukemia was more than 100 µM throughout.
As for `OC1(c2ccccc2)C2CCN(CC2)C1CN1CCOCC1` (stereo not given), the TGI in the assay on MDA-MB-231 breast, with UACC-62 melanoma, in the assay with PC-3 prostate, in the assay with UACC-257 melanoma, with NCI/ADR-RES ovarian and in the assay with OVCAR-4 ovarian was more than 100 µM each time. The TGI in the assay with OVCAR-5 ovarian, with UO-31 renal, in the assay with HL-60(TB) leukemia, with HCT-15 colon, in the assay with CCRF-CEM leukemia and with SW-620 colon was more than 100 µM in each case. In addition, the TGI in the assay on MOLT-4 leukemia, with SK-MEL-28 melanoma, in the assay on KM12 colon, in the assay with K-562 leukemia, with OVCAR-3 ovarian and in the assay with SR leukemia was more than 100 µM each time.
As for `O/N=C/c1ncccc1C1OCCO1`, the TGI with UACC-62 melanoma, in the assay on UACC-257 melanoma, in the assay on OVCAR-4 ovarian, with OVCAR-5 ovarian, with UO-31 renal and in the assay on HL-60(TB) leukemia was more than 100 µM in each case. Moreover, the TGI with HCT-15 colon, in the assay with CCRF-CEM leukemia, with SW-620 colon, with MOLT-4 leukemia, in the assay with SK-MEL-28 melanoma and in the assay on KM12 colon was more than 100 µM each time. Besides, the TGI with K-562 leukemia, in the assay with OVCAR-3 ovarian and in the assay with SR leukemia was more than 100 µM throughout.
`O=S(=O)(O)C1=C2Sc3ccccc3N=C2c2ccccc2C1`: the TGI was 26.4 µM in the assay with UACC-62 melanoma; 31.4 µM with UACC-257 melanoma; 33.8 µM in the assay on OVCAR-4 ovarian; 34.5 µM in the assay on OVCAR-5 ovarian; 33.6 µM with UO-31 renal; 21.2 µM in the assay with HL-60(TB) leukemia. In addition, the TGI in the assay with HCT-15 colon was 27.3 µM; in the assay on CCRF-CEM leukemia it was 24.3 µM; with SW-620 colon, 29.8 µM; with MOLT-4 leukemia it was 29.1 µM; in the assay with SK-MEL-28 melanoma it was 31.4 µM; in the assay with KM12 colon it was 29.5 µM. Further, the TGI came to 36.1 µM in the assay on K-562 leukemia, 31.3 µM with OVCAR-3 ovarian and 20.6 µM with SR leukemia.
Regarding `Cc1cccc(C(C)C)c1NC(=O)/C(Cc1c([N+](=O)[O-])cccc1[N+](=O)[O-])=N/NC(=O)CC#N`, the TGI with UACC-62 melanoma, in the assay on OVCAR-5 ovarian, in the assay with UO-31 renal, in the assay on HL-60(TB) leukemia, in the assay on HCT-15 colon and in the assay on CCRF-CEM leukemia was more than 100 µM in each case. The TGI with SW-620 colon, with MOLT-4 leukemia, with SK-MEL-28 melanoma, with KM12 colon, in the assay with K-562 leukemia and in the assay with OVCAR-3 ovarian was more than 100 µM in each case.
Regarding `NC(=S)N1N=C2c3ccccc3CC[C@@H]2[C@@H]1c1ccccc1`, the TGI in the assay on UACC-62 melanoma is 26.1 µM; with UACC-257 melanoma it was 56.3 µM; in the assay with OVCAR-4 ovarian, more than 100 µM; with OVCAR-5 ovarian, 99.9 µM; in the assay on UO-31 renal, more than 94.6 µM; in the assay on HL-60(TB) leukemia, 10.5 µM. The TGI was 24.6 µM in the assay on HCT-15 colon; 62.3 µM in the assay on CCRF-CEM leukemia; more than 59.3 µM in the assay with SW-620 colon; 48 µM in the assay with MOLT-4 leukemia; 31 µM with KM12 colon; more than 49.1 µM in the assay on K-562 leukemia. Moreover, the TGI worked out at 12.7 µM in the assay with OVCAR-3 ovarian and 12.6 µM in the assay with SR leukemia.
`CCC(C)(C)C1CCC2c3c([nH]c4ccccc34)C3C(=O)N(c4ccc(OC)cc4)C(=O)C3C2C1` (stereo not given): the TGI in the assay on MDA-MB-231 breast was 32.3 µM; in the assay on UACC-62 melanoma, more than 100 µM; with PC-3 prostate it was 26.6 µM; with MDA-N it was 68.6 µM; in the assay with UACC-257 melanoma it was more than 100 µM; in the assay with NCI/ADR-RES ovarian, 44.4 µM. Also, the TGI with OVCAR-4 ovarian is more than 100 µM; in the assay on OVCAR-5 ovarian, 45.6 µM; with UO-31 renal, more than 100 µM; with HCT-15 colon, more than 100 µM; in the assay with SW-620 colon, more than 100 µM; in the assay with MOLT-4 leukemia it was 60.8 µM. Also, the TGI in the assay on SK-MEL-28 melanoma is more than 100 µM; in the assay with KM12 colon, 12.2 µM; with K-562 leukemia, more than 100 µM; with OVCAR-3 ovarian it was 7.28 µM; with SR leukemia, 75.3 µM.
As to `O=C1N[C@H]2c3c(Cl)sc(Cl)c3[C@@H](O)[C@H]2O1`, the TGI with MDA-MB-231 breast, with UACC-62 melanoma, in the assay with PC-3 prostate, in the assay with MDA-N, with UACC-257 melanoma and with NCI/ADR-RES ovarian was more than 100 µM in each case. Besides, the TGI in the assay with OVCAR-5 ovarian, with UO-31 renal, in the assay with HL-60(TB) leukemia, in the assay on HCT-15 colon, in the assay on CCRF-CEM leukemia and in the assay on SW-620 colon was more than 100 µM in each case. For the same compound, the TGI with MOLT-4 leukemia, in the assay on SK-MEL-28 melanoma, in the assay on KM12 colon, in the assay with K-562 leukemia, in the assay on OVCAR-3 ovarian and in the assay on SR leukemia was more than 100 µM in each case.
